Earlier results on one compound are cited in patent US20240189229A1, “LIQUID PHARMACEUTICAL COMPOSITIONS OF BACLOFEN FOR ORAL ADMINISTRATION” (ANI Pharmaceuticals, Inc., priority 2022, published 2024).

Structures are written as SMILES. Where two headings read alike, the source gives them in different places.

As to `NCC(CC(=O)O)c1ccc(Cl)cc1` (centres unmarked) [Baclofen, 4-amino-3-(4-chlorophenyl)-butanoic acid], the “Concentration of baclofen obtained by dissolving” value runs as follows: (aqueous solution of 0.1N HCl (Ahuja 1985)) “greater than 20 mg/mL”; (aqueous solution of 0.1N NaOH (Ahuja 1985)) “greater than 20 mg/mL”. The Solubility in chloroform entry (chloroform) was “insoluble”. Also, the Solubility in methanol result (methanol) was “very slightly soluble”. Besides, the Solubility in water result (water) is “slightly soluble”.
